Consider 1 molecule from paper PMC10222839, “Development of Novel Small-Molecule Activators of Pyruvate Kinase Muscle Isozyme 2, PKM2, to Reduce Photoreceptor Apoptosis” (Pharmaceuticals, 2023).

Series [1] has as its system cleaved caspase-8-positive cells in the retina. In words: Experimental retinal detachment, flow cytometry of cleaved caspase 8. Type of series: in vivo. As to conditions: rat retinal detachment, highest dose tested (1 mM final vitreous), intravitreal, 3 days, versus DMSO. An excerpt: Caspase activation, including caspase 8, increases 3 days status post experimental retinal detachment and has been validated to be a marker of photoreceptor apoptosis and the extent of retinal-detachment-induced photoreceptor cell death. Additionally, this caspase activation coincides with the peak of the terminal deoxynucleotidyl transferase dUTP nick end labeling (TUNEL) staining of photoreceptors, specifically after experimental retinal detachment in rodents. So, the detection and quantification of cleaved caspase 8 can be used as a marker of photoreceptor death after experimental retinal detachment and to assess the efficacy of neuroprotective agents. As such, different concentrations of compound 2 or its vehicle, DMSO, were injected at the time of retinal detachment creation in rats, and the retinas were harvested 3 days later to assess caspase 8 activation.
Detachments were created in rats as previously outlined. In brief, rats were anesthetized with ketamine (100 mg/mL) and xylazine (20 mg/mL), and their pupils were dilated as above. […]
After washing the cells in ice-cold PBS, the cells were fixed with 4% paraformaldehyde for 20 min at room temperature followed by two PBS washes via centrifugation at 300× g for 10 min at 4 °C. […] Data were analyzed with FCS Express software (De Novo Software, Ontario, CA, USA).

Series [2] deals with T1, pyruvate kinase (PK) activity in 661W cells (Mus musculus, UniProt P52480).
T1 construct: endogenous in cells; host or cells: 661W photoreceptor-like cells
T1 sequence (P52480 whole entry): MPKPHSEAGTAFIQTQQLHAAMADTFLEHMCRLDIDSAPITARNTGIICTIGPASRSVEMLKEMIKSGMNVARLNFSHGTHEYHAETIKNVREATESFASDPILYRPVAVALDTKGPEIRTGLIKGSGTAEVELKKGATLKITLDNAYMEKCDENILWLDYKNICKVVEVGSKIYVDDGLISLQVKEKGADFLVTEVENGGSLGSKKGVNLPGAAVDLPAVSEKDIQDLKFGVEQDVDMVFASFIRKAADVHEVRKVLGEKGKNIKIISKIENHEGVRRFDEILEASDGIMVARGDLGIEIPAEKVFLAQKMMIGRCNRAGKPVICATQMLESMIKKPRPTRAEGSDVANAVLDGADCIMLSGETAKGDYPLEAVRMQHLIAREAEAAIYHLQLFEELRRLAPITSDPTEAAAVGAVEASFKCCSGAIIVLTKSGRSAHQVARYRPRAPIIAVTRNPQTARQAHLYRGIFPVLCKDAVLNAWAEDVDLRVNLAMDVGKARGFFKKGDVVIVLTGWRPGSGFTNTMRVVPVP
The series can be described thus: PK activity in 661W cell lysates after 2 h incubation with activator. In kind it is cell-based. The procedure:
The potency and efficacy of each compound, 1 through 5, was assessed with recombinant human PKM2 using an enzyme-coupled assay that uses lactate dehydrogenase and measures the reduction in NADH via absorbance at 340 nm. […] To assess the ability of this pyridazinoindolone series of compounds to cross cellular membranes and increase PK activity, we utilized 661W cells, which are immortalized photoreceptor-like cells that express cone markers.
Cell culture. Next, 661W cells were incubated with either DMSO or different concentrations of small-molecule PKM2 activator for 2 h, lysed and homogenized in RIPA Lysis and Extraction Buffer (Thermo Fisher, Waltham, MA, USA, Cat No. 89900) with protease inhibitors (Complete-Mini, Roche Diagnostics, Indianapolis, IN, USA), and centrifuged at 10,000 rpm for 10 min to remove cellular debris. The supernatant (4–8 μL) was then used to assess the pyruvate kinase activity as described above. The total protein content was determined using the Pierce BCA protein assay kit (Thermo Fisher, Waltham, MA, USA, Cat No. 23225) with the Pierce™ Bovine Serum Albumin Standard Pre-Diluted Set (Thermo Fisher, Waltham, MA, USA, Cat No. 23208) and used to normalize activity as described previously.

The subject of series [3] is 661W cells. The series can be described thus: Cell viability of 661W cells (RealTime-Glo MT). Type of series: cell-based. The settings on record: for cell viability: in presence of FasL, 48 h, versus vehicle. Here is the method: To be confident the pyridazinoindolone core could be utilized in future medicinal chemistry efforts, its photoreceptor neuroprotective effect was assessed. […] Fas signaling has a critical role in caspase activation and photoreceptor apoptosis after experimental retinal detachment. 661W cells die via caspase-mediated mechanisms, and the Fas-ligand (FasL) treatment of these cells leads to the activation of caspases and subsequent death, analogous to the in vivo experimental retinal detachment model. Furthermore, similar to photoreceptors, 661W cells express PKM2 (Figure 4a), and these cells have been used to garner information on the role of metabolism in photoreceptor degeneration. As such, this is a suitable in vitro model of photoreceptor stress that can be utilized to assess the consequences of reprogramming metabolism by pharmacologically activating PKM2 [9]. 661W cells were treated with FasL and either compound 2 or vehicle (DMSO).
A luminescent assay kit (RealTime-Glo MT Cell Viability Assay, Promega, Madison, WI, USA, Cat No. G9711) was utilized to assess cell viability. As above, 661W cells were seeded in 96-well plates (Nunc, Rochester, NY, USA) at 2500 cells/well 1 day before treatment. The 661w cells were also pre-treated with compound 2 or DMSO for 2 h before adding 500 ng/mL FasL and 250 ng/mL HA. Viability was measured 48 h after the addition of these latter reagents. As with the caspase assays, luminescence was monitored via a plate reader luminometer (BMG Labtech, Inc., Cary, NC, USA).

For the molecule `Cn1c2cc([S+](C)[O-])ccc2c2cnn(Cc3cccc(N)c3)c(=O)c21` (stereo not drawn) [Compound 2], the “percentage of cleaved caspase-8-positive cells in the retina” value in series [1] was “statistically significantly reduced”. In addition, the activity in series [2] (n = 3) was half-maximal at 120 ± 45 nM (AC50). Besides, the Emax in series [2] (n = 3, read-out: 661W Cells Max Activation) worked out at 355 ± 26%. Besides, the cell viability result in series [3] (200 nM) was “significantly improved”; in series [3] (2 μM) it was “trended towards improved cell viability”. Moreover, the “cell viability, compound alone” value in series [3] (no FasL, concentration near AC50 or more than 10-fold greater) is listed as “no significant effect”.

Usually AC50 stands for the midpoint of the concentration-response curve, whichever way the signal moves. A lower AC50 goes with greater potency.
